Measurements taken from US20250290117A1, “MOLECULAR PHENOTYPIC ANTIMICROBIAL SUSCEPTIBILITY TESTING” (priority 2024, published 2025).

Tests used:
Assay type in all cases: cell-based
[1] = tested on: pathogens of clinical samples; assay: Molecular phenotypic antimicrobial susceptibility test of clinical samples, direct PCR without a separate DNA purification step (Table 6)
Outline: (§1)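 Patient specimens in boric acid were grown in culture medium, adjusted to 0.5 McFarland by optical density, then incubated 12-16 hours with antimicrobials in Mueller Hinton Broth at breakpoint concentrations. Growth was read by semi-quantitative PCR, alongside a no-antimicrobial well for pathogen load.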

Escherichia coli [2] = assay: Traditional culture-based antimicrobial susceptibility test
Outline: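 E. coli isolates underwent conventional growth, isolation and exposure to antimicrobials, giving a culture-based susceptibility call for each agent.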

Escherichia coli [3] = assay: Molecular phenotypic antimicrobial susceptibility test (extraction or DNA purification prior to PCR)
Outline: as §1

[4] = tested on: pathogens of clinical samples; assay: Molecular phenotypic antimicrobial susceptibility test of clinical samples, extraction DNA purification step prior to PCR (Table 6)
Outline: as §1

[5] = E. coli, clinical sample of r10-r24
[6] = E. coli, clinical sample of r158-r172
[7] = K. aerogenes, clinical sample of r136-r150
[8] = K. pneumoniae, clinical sample of r121-r135
[9] = M. morganii, clinical sample of r55-r69
[10] = M. morganii, clinical sample of r70-r84
[11] = P. mirabilis, clinical sample of r25-r39
[12] = P. mirabilis, clinical sample of r40-r54

Substance: Piperacillin/Tazobactam
- Molecular Antibiotic Susceptibility Result [1, 5]: Sensitive (Antimicrobial wells with pathogen load detected below the control wells (typically >2 cycle thresholds later) may be reported as Sensitive)
- Ct ([1]; E. coli, clinical sample of r10-r24, Ct control avg 12.97): 24.816
- Molecular Antibiotic Susceptibility Result [1, 6]: Sensitive (Antimicrobial wells with pathogen load detected below the control wells (typically >2 cycle thresholds later) may be reported as Sensitive)
- Ct ([1]; E. coli, clinical sample of r158-r172, Ct control avg 12.894): 29.34
- Molecular Antibiotic Susceptibility Result [1, 7]: Sensitive (Antimicrobial wells with pathogen load detected below the control wells (typically >2 cycle thresholds later) may be reported as Sensitive)
- Ct ([1]; K. aerogenes, clinical sample of r136-r150, Ct control avg 13.854): 30.839
- Molecular Antibiotic Susceptibility Result [1, 8]: Sensitive (Antimicrobial wells with pathogen load detected below the control wells (typically >2 cycle thresholds later) may be reported as Sensitive)
- Ct ([1]; K. pneumoniae, clinical sample of r121-r135, Ct control avg […]): 28.974
- Molecular Antibiotic Susceptibility Result [1, 9]: Sensitive (Antimicrobial wells with pathogen load detected below the control wells (typically >2 cycle thresholds later) may be reported as Sensitive)
- Ct ([1]; M. morganii, clinical sample of r55-r69, Ct control avg 12.09): 13.986
- Molecular Antibiotic Susceptibility Result [1, 10]: Sensitive (Antimicrobial wells with pathogen load detected below the control wells (typically >2 cycle thresholds later) may be reported as Sensitive)
- Ct ([1]; M. morganii, clinical sample of r70-r84, Ct control avg 11.677): 28.975
- Molecular Antibiotic Susceptibility Result [1, 11]: Sensitive (Antimicrobial wells with pathogen load detected below the control wells (typically >2 cycle thresholds later) may be reported as Sensitive)
- Ct ([1]; P. mirabilis, clinical sample of r25-r39, Ct control avg 11.801): 30.658
- Molecular Antibiotic Susceptibility Result [1, 12]: Sensitive (Antimicrobial wells with pathogen load detected below the control wells (typically >2 cycle thresholds later) may be reported as Sensitive)
- Ct ([1]; P. mirabilis, clinical sample of r40-r54, Ct control avg 10.06): 30.24
- Traditional Culture Results (Escherichia coli [2]; E. coli #1 - WDCM 00090 - 6.2×E3): Sensitive
- Traditional Culture Results (Escherichia coli [2]; E. coli #2 - WDCM 00090 - 6.2×E3): Sensitive
- Traditional Culture Result (Escherichia coli [2]; E. coli isolate 1 (Table 3)): Sensitive
- Traditional Culture Result (Escherichia coli [2]; E. coli isolate 2 (Table 3)): Sensitive
- Traditional Culture Result (Escherichia coli [2]; E. coli isolate 3 (Table 3)): Sensitive
- Traditional Culture Result (Escherichia coli [2]; E. coli isolate 4 (Table 3)): Sensitive
- Traditional Culture Result (Escherichia coli [2]; E. coli isolate 5 (Table 3)): Sensitive
- Traditional Culture Result (Escherichia coli [2]; E. coli isolate JJ1887): Sensitive
- Ct at Sensitive Breakpoint (Escherichia coli [3]; E. coli isolate 1, Ct at control (average) 21.238): 25.572
- Molecular Antimicrobial Susceptibility Result (Escherichia coli [3]; E. coli isolate 1, at sensitive breakpoint): Sensitive (Antimicrobial wells with pathogen load detected below the control wells (typically >2 cycle thresholds later) may be reported as Sensitive)
- Ct at Sensitive Breakpoint (Escherichia coli [3]; E. coli isolate 2, Ct at control (average) 21.270): 22.685
- Molecular Antimicrobial Susceptibility Result (Escherichia coli [3]; E. coli isolate 2, at sensitive breakpoint): Sensitive (Antimicrobial wells with pathogen load detected below the control wells (typically >2 cycle thresholds later) may be reported as Sensitive)
- Ct at Sensitive Breakpoint (Escherichia coli [3]; E. coli isolate 3, Ct at control (average) 22.0995): 20.541
- Molecular Antimicrobial Susceptibility Result (Escherichia coli [3]; E. coli isolate 3, at sensitive breakpoint): Sensitive (Antimicrobial wells with pathogen load detected below the control wells (typically >2 cycle thresholds later) may be reported as Sensitive)
- Ct at Sensitive Breakpoint (Escherichia coli [3]; E. coli isolate 4, Ct at control (average) 17.5733): 26.05
- Molecular Antimicrobial Susceptibility Result (Escherichia coli [3]; E. coli isolate 4, at sensitive breakpoint): Sensitive (Antimicrobial wells with pathogen load detected below the control wells (typically >2 cycle thresholds later) may be reported as Sensitive)
- Ct at Sensitive Breakpoint (Escherichia coli [3]; E. coli isolate 5, Ct at control (average) 21.0933): 25.44
- Molecular Antimicrobial Susceptibility Result (Escherichia coli [3]; E. coli isolate 5, at sensitive breakpoint): Sensitive (Antimicrobial wells with pathogen load detected below the control wells (typically >2 cycle thresholds later) may be reported as Sensitive)
- Molecular Antibiotic Susceptibility Result [4, 5]: Sensitive (Antimicrobial wells with pathogen load detected below the control wells (typically >2 cycle thresholds later) may be reported as Sensitive)
- Ct ([4]; E. coli, clinical sample of r10-r24, Ct Control Avg 18.112): 26.499
- Molecular Antibiotic Susceptibility Result [4, 6]: Sensitive (Antimicrobial wells with pathogen load detected below the control wells (typically >2 cycle thresholds later) may be reported as Sensitive)
- Ct ([4]; E. coli, clinical sample of r158-r172, Ct Control Avg 20.146): 30.693
- Molecular Antibiotic Susceptibility Result [4, 7]: Sensitive (Antimicrobial wells with pathogen load detected below the control wells (typically >2 cycle thresholds later) may be reported as Sensitive)
- Ct ([4]; K. aerogenes, clinical sample of r136-r150, Ct Control Avg 19.994): 32.586
- Molecular Antibiotic Susceptibility Result [4, 8]: Sensitive (Antimicrobial wells with pathogen load detected below the control wells (typically >2 cycle thresholds later) may be reported as Sensitive)
- Ct ([4]; K. pneumoniae, clinical sample of r121-r135, Ct Control Avg 24.272): 34.274
- Molecular Antibiotic Susceptibility Result [4, 9]: Sensitive (Antimicrobial wells with pathogen load detected below the control wells (typically >2 cycle thresholds later) may be reported as Sensitive)
- Ct ([4]; M. morganii, clinical sample of r55-r69, Ct Control Avg 28.86): 36.138
- Molecular Antibiotic Susceptibility Result [4, 10]: Sensitive (Antimicrobial wells with pathogen load detected below the control wells (typically >2 cycle thresholds later) may be reported as Sensitive)
- Ct ([4]; M. morganii, clinical sample of r70-r84, Ct Control Avg 27.053): Undet
- Molecular Antibiotic Susceptibility Result [4, 11]: Sensitive (Antimicrobial wells with pathogen load detected below the control wells (typically >2 cycle thresholds later) may be reported as Sensitive)
- Ct ([4]; P. mirabilis, clinical sample of r25-r39, Ct Control Avg 26.064): 28.92
- Molecular Antibiotic Susceptibility Result [4, 12]: Sensitive (Antimicrobial wells with pathogen load detected below the control wells (typically >2 cycle thresholds later) may be reported as Sensitive)
- Ct ([4]; P. mirabilis, clinical sample of r40-r54, Ct Control Avg 26.987): 33.895
